From patent US20150125893A1, “TRANSPORTER BIOSENSORS” (Carnegie Institute of Washington, priority 2013, published 2015)

Tests used:
OzTrac-MSL10 = OzTrac-MSL10 FRET osmosensor expressed in yeast cells, response to osmolytes; assay type: cell-based, Arabidopsis thaliana; details: for FRET emission ratio: addition of 1M osmolyte; for FRET emission ratio / FRET response to osmolyte: yeast cells; for FRET response to osmolyte: hyper-osmotic stress, NaCl at 1M
Text: Fusion proteins comprising the mechanisensitive channel small conductance-like 10 (AtMSL10) were constructed, potentially creating an osmosensor. […] This t9AFP-AtMSL10-t7TFPt9 protein is named as OzTrac-MSL10. […] Upon treatment of 1 M NaCl, which induces hyper-osmotic stress, AtMSL10 will undergo a conformational change into the closed state which causes the FRET pairs to come closer, resulting in a higher FRET.
The OzTrac-MSL10 FRET sensor can detect a range of osmolarity concentration changes. […] The calculation of the dissociation constant is around 0.5 M for NaCl and KCl, and around 1M for […] and […].

[1] = tested on: NRT1.1 T101A mutant fusion protein; experiment: Nitrate sensor fluorescence response in yeast, NRT1.1 T101A low affinity mutant fusion protein; assay type: cell-based, Arabidopsis thaliana
Experimental: Yeast strains used in this study were BJ5465 [MATa, ura3-52, trp1, leu2Δ1, his3Δ200, pep4::HIS3, prb1Δ1.6R, cant GAL+] obtained from Yeast Genetic Stock Center (University of California, Berkeley, Calif.). Yeast was transformed using the lithium acetate method and selected on solid YNB (minimal yeast medium without nitrogen; Difco) supplemented with 2% glucose and -Ura DropOut (Clontech). Single colonies were grown in 5 mL liquid YNB supplemented with 2% glucose and -Ura DropOut under agitation (220 rpm) at 30° C. until OD600 nm˜0.8 was reached. The liquid cultures were subcultured by diluted to OD600 nm 0.01 in the same liquid medium and conditions at 30° C. until OD600 nm 0.2 was reached. […] Fluorescence was measured by a fluorescence plate reader (M1000, TECAN), in bottom reading mode using a 7.5 nm bandwidth for both excitation and emission. To measure fluorescence response to substrate addition, 100 μL of substrate (dissolved in MES buffer as 500% stock solution) were added to 100 μL of cells in a 96-well plate (Greiner). Fluorescence from cultures harboring yeast expression vectors pDRFlip30, 39, and 42 was measured as emission at λem=470-570 nm using excitation at λexc=428 nm and fluorescence using yeast expression vector pDRFlip34 and 35 was measured as emission at λem=470-570 nm using excitation at λexc=440 nm.

[2] = tested on: CHL1 nitrate transporter (AFPt9 in central loop, Teal-t9 in loop between helices 10 and 11)
Text: (§1) All transporter and sensor constructs were inserted in the yeast expression vector pDRFlip30, 34, 35, 39, 42-GW. The details of the vectors are as follows: pDRFlip30 using pair of N-terminal fluorescent protein Aphordite t9 (AFPt9), 9 amino acids truncated of C-term of AFP, and C-terminal fluorescent protein monomeric Cerulean (mCer); pDRFlip 39 using pair of N-terminally fused fluorescent protein enhanced dimer Aphrodite t9 (edAFPt9) and C-terminal fluorescent protein enhanced dimer, 7 amino acids and 9 amino acids truncated of N-term and C-term of eCyan (t7.ed.eCFPt9), respectively; pDRFlip 42 using pair of N-terminal fluorescent protein Citrine and C-terminal fluorescent protein mCer; pDRFlip 34 using pair of N-terminal fluorescent protein AFPt9 and C-terminal fluorescent protein t7.Teal.t9 (t7.TFP.t9), and pDRFlip 35 using pair of N-terminal fluorescent protein AFPt9 and C-terminal fluorescent protein mTFPt9. All vectors contained […] replication origin, GATEWAY™ cassette-attR1-CmR-ccdB gene-attR2 sequence, which is between the pair of fluorescent proteins, a PMA1 promoter fragment, an ADH terminator, different pairs of fluorescent proteins, and the URA cassette for selection in yeast. The full length ORF of NRT1.1 and different mutants of NRT1.1, such as T101A, T101D, P492L from Arabidopsis (At1g12110) in TOPO GATEWAY™ entry vector were used to prepare the nitrate sensors of the present invention. The yeast vector harboring the constructs was then created by the GATEWAY™ LR reaction between different forms of pTOPO-NRT and different pDRFlip-GWs, following manufacturer's instructions..
(§2) Yeast strains used in this study were BJ5465 [MATa, ura3-52, trp1, leu2Δ1, his3Δ200, pep4::HIS3, prb1Δ1.6R, cant GAL+] obtained from Yeast Genetic Stock Center (University of California, Berkeley, Calif.). Yeast was transformed using the lithium acetate method and selected on solid YNB (minimal yeast medium without nitrogen; Difco) supplemented with 2% glucose and -Ura DropOut (Clontech).

[3] = tested on: CHL1 nitrate transporter (Aphrodite-t9 N-terminus, Teal-t9 C-terminus)
Text: as §1, §2

[4] = tested on: pDRFlip302 (NRT1.1 with AFPt9 and mCerulean)
Text: as §1, §2

Structure (SMILES) | FRET emission ratio (OzTrac-MSL10) | FRET response to osmolyte (OzTrac-MSL10) | other results
OC[C@@H](O)[C@@H](O)[C@H](O)[C@@H](O)CO [sorbitol] | higher FRET emission ratio | increased the FRET | 
[Cl-].[K+] [KCl, potassium chloride] | higher FRET emission ratio | increased the FRET | 
O=[N+]([O-])[O-].[K+] [KNO3] |  |  | sensor response ([1]; high levels of KNO3): only responds to addition of high levels; sensor response ([1]; low levels of KNO3): does not respond
O=[N+]([O-])O [nitrate] |  |  | change in FRET on addition of nitrate [2]: does not induce a change in FRET; change in FRET on addition of nitrate [3]: does not induce a change in FRET; change in FRET on addition of nitrate [4]: does not induce a change in FRET
OCC(O)CO [glycerol] | higher FRET emission ratio | increased the FRET | 
[Cl-].[Na+] [NaCl, sodium chloride] | higher FRET emission ratio | dramatic FRET change | emission spectrum change (OzTrac-MSL10; 1M NaCl, excitation at 440 nm): decrease in fluorescence intensity of donor and increase of acceptor; FRET change with serial concentrations (OzTrac-MSL10; serial NaCl concentrations (mM), excitation at 440 nm): concentration-dependent FRET changes
